Tests used:
Type in all cases: binding
α1-acid glycoprotein [1] = assay: Retention of R- and S-propranolol on α1-acid glycoprotein column as a function of pH; details: for decrease of retention factor: pH decreased from 7.4 to 4.8
Experimental: (§1) The α1-acid glycoprotein and hydrazide-activated supports were downward slurry-packed at 28 MPa (4000 psi) into 50×4.1 mm I.D. stainless steel columns. These columns were enclosed in water jackets for temperature control. All studies, except those examining the temperature dependence of propranolol—α1-acid glycoprotein binding, were performed at 37° C. The mobile phases and packing solutions were prepared using pH 7.4 phosphate buffered saline (PBS, composition: 0.013 M potassium dihydrogen phosphate, 0.053 M disodium hydrogen phosphate and 0.133 M sodium chloride). Prior to use, all mobile phases were filtered through a 0.45 μm cellulose acetate filter and degassed under vacuum for 10 min. Elution of R- and S-propranolol was detected by monitoring the absorbance at 225 nm. Zonal elution studies were performed on the α1-acid glycoprotein column by applying pH 7.4 phosphate buffer solution containing up to 20 μM of the desired competing agent while making 20 μL injections of R-propranolol or S-propranolol onto the column. At each concentration of competing agent, three replicate injections of the desired analyte were made. The propranolol samples were prepared by dissolving 5.0 μM R- or S-propranolol in the appropriate mobile phase. All mobile phases containing propranolol were prepared using the individual enantiomers or propranolol. The flow rate ranged from 0.8 to 1.5 mL/min, with no significant changes in the retention factors being noted under this range of conditions.
(§2) The retention times for propranolol were calculated using a B/A0.5 method. The column void volume was determined by making injections of sodium nitrate onto a column containing only hydrazide-activated silica while monitoring the absorbance at 205 nm. All elution times were corrected for the extra-column volume of the chromatographic system, as determined by making injections of R-propranolol or S-propranolol when no column was present. A correction for the small amount of non-specific binding between propranolol and the hydrazide support was made by measuring the retention factors for this drug on a column equivalent in size to the α1-acid glycoprotein column, but containing only hydrazide-activated silica. This was measured at each propranolol concentration in the mobile phase and accounted for 3-15% of the retention factors noted for propranolol on the α1-acid glycoprotein column. […] The column was stored in pH 7.4 PBS buffer at 4° C. when not in use.
The effect of other separation conditions such as pH were also evaluated. For instance, as the pH decreased from 7.4 to 4.8, the retention factor for R-propranolol decreased from 132 to 17.8 (87%), while the retention factor for S-propranolol decreased from 167 to 17.8 (89%).

α1-acid glycoprotein [2] = assay: Self-competition zonal elution of R- and S-propranolol on immobilized α1-acid glycoprotein HPLC column; details: pH 7.4 phosphate buffered saline, immobilized AGP column
Experimental: as §1, §2
All of the results presented in Table 2 were generated by performing self-competition zonal elution studies at temperatures ranging from 5° C. to 37° C. in pH 7.4 phosphate buffered saline. The numbers in parentheses represent a range of ± one standard deviation.

[3] = Effects of periodate oxidation on activity of immobilized α1-acid glycoprotein (chromatographic studies); details: 37° C., pH 7.4 PBS
Experimental: FIG. 2A illustrates an exemplary method for preparing oxidized α1-acid glycoprotein. The conditions chosen for this reaction vary according to the final degree of oxidation desired. […] This mixture was allowed to react for 10 to 15 minutes at room temperature in the dark and quenched by adding 0.25 mL ethylene glycol per milliliter of sample. After this new mixture had reacted for 2 minutes, it was put into a dialysis bag at 4° C. for 2 hours against 2 liters pH 7.0, 20 mM acetate buffer containing 0.15 M sodium chloride. This was followed by three additional two-hour dialysis cycles against 2 liter portions of pH 7.0, 0.10 M potassium phosphate buffer.
Oxidized α1-acid glycoprotein was immobilized to hydrazide-activated silica by a procedure illustrated in FIG. 2C. In exemplary studies, a 5 mL portion of pH 7.0, 0.10 M phosphate buffer containing 1.5 mg/mL oxidized α1-acid glycoprotein was mixed with 0.03 grams of hydrazide-activated silica. This mixture was sonicated under aspirator vacuum for 10 minutes to remove any air bubbles from the suspension. It was then placed onto a shaker and allowed to react at 4° C. for up to seven days, with more than two days being optimum. The reaction was stopped by centrifuging the reaction mixture and removing the supernatant. The support was next washed several times with pH 7.0, 0.10 M phosphate buffer, followed by several additional washings with deionized water. Any hydrazide groups remaining on this support were removed by adding a 200-fold excess of glyceraldehyde versus the support's original hydrazide content. This mixture was shaken at 4° C. for 6 hours. The support was then washed several times with pH 7.0, 0.10 M phosphate buffer. The amount of immobilized α1-acid glycoprotein was determined by comparing the final and initial concentrations of α1-acid glycoprotein in the reaction slurry, using absorbance measurements at 280 nm.
as §1
The retention times for propranolol were calculated using a B/A0.5 method. The column void volume was determined by making injections of sodium nitrate onto a column containing only hydrazide-activated silica while monitoring the absorbance at 205 nm. All elution times were corrected for the extra-column volume of the chromatographic system, as determined by making injections of R-propranolol or S-propranolol when no column was present. […]

[4] = AGP oxidized with 10 mM periodate
[5] = AGP oxidized with 20 mM periodate
[6] = AGP oxidized with 50 mM periodate

Compound	retention factor (α1-acid glycoprotein [1]; pH 4.8, AGP column)	retention factor (α1-acid glycoprotein [1]; pH 7.4, AGP column)	decrease of retention factor (α1-acid glycoprotein [1])	Association equilibrium constant, Ka (α1-acid glycoprotein [2]; 5° C.)	Association equilibrium constant, Ka (α1-acid glycoprotein [2]; 15° C.)	Association equilibrium constant, Ka (α1-acid glycoprotein [2]; 25° C.)	Association equilibrium constant, Ka (α1-acid glycoprotein [2]; 37° C.)	Binding capacity [3, 4]	Specific activity [3, 4]	Binding capacity [3, 5]	Specific activity [3, 5]	Binding capacity [3, 6]	Specific activity [3, 6]
CC(C)NC[C@@H](O)COc1cccc2ccccc12 [R-Propranolol]	17.8	132	87%	8 (±2) × 10^6 M^−1	7 (±1) × 10^6 M^−1	3.9 (±0.2) × 10^6 M^−1	2.7 (±0.2) × 10^6 M^−1						
CC(C)NCC(O)COc1cccc2ccccc12 (centres unmarked) [S-Propranolol]	17.8	167	89%	11 (±3) × 10^6 M^−1	9 (±2) × 10^6 M^−1	5.2 (±1.7) × 10^6 M^−1	4.2 (±0.3) × 10^6 M^−1						
α1-acid glycoprotein [AGP]								6.8 (±0.2) mg/g silica	0.67 (±0.02) mg/mg AGP	6.3 (±0.3) mg/g silica	0.40 (±0.02) mg/mg AGP	6.8 (±0.3) mg/g silica	0.47 (±0.03) mg/mg AGP
